According to ChEMBL document CHEMBL1201862, “PubChem BioAssay data set” (2004):
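Briefly, cells in 96-well plates were exposed to five compound concentrations for 48 h, and endpoints were estimated by linear interpolation. GI50 = concentration required for 50% inhibition of growth.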 Calls of active or inactive are those of the source. Cut-off read from the data, not from the text of the source: active = GI50 up to about 1.1 µM and inactive = higher.

Assays:
Assay in all cases: growth of human tumour cells (NCI), 48 h
SF-295 = test system: SF-295
SK-OV-3 = test system: SK-OV-3
SF-268 = test system: SF-268
IGROV-1 = test system: IGROV-1
COLO 205 = test system: COLO 205
SK-MEL-5 = test system: SK-MEL-5
M14 = test system: M14
HCT-116 = test system: HCT-116
SF-539 = test system: SF-539
OVCAR-3 = test system: OVCAR-3
MCF7 = test system: MCF7
A549 = test system: A549
SN12C = test system: SN12C
NCI-H226 = test system: NCI-H226
A498 = test system: A498
MOLT-4 = test system: MOLT-4
PC-3 = test system: PC-3
HOP-62 = test system: HOP-62
ACHN = test system: ACHN
LXFL 529 = test system: LXFL 529

Measured: GI50

COc1ccccc1/C=C/c1ccnc2ccccc12
inactive: SF-295 14.2 µM | SK-OV-3 16 µM | SF-268 14.2 µM | IGROV-1 4.97 µM | COLO 205 17.1 µM | SK-MEL-5 13.5 µM | M14 16.2 µM | HCT-116 13.6 µM | SF-539 14.6 µM | OVCAR-3 13.8 µM | MCF7 4.25 µM | A549 14.5 µM | SN12C 18.1 µM | NCI-H226 15.8 µM | A498 15.4 µM | MOLT-4 7.87 µM | PC-3 14.3 µM | HOP-62 16.1 µM | ACHN 16.4 µM

CCOc1ccc(/N=N/c2c(-c3ccccc3)nn(C(=O)CC(=O)Nc3ccccc3Cl)c2-c2ccccc2)cc1
inactive: SF-295 68.5 µM | SK-OV-3 > 100 µM | SF-268 39 µM | IGROV-1 > 100 µM | COLO 205 64.9 µM | SK-MEL-5 44.6 µM | M14 > 100 µM | HCT-116 35.6 µM | SF-539 58.3 µM | OVCAR-3 35.8 µM | A549 67.3 µM | SN12C > 100 µM | LXFL 529 76 µM | NCI-H226 65.9 µM | MOLT-4 34.1 µM | HOP-62 93.8 µM | ACHN 33.3 µM

CC(C)(C)CC(C)(C)c1cc2c(O)c(c1)Cc1cc(C(C)(C)CC(C)(C)C)cc(c1O)Cc1cc(C(C)(C)CC(C)(C)C)cc(c1O)Cc1cc(C(C)(C)CC(C)(C)C)cc(c1O)C2
inactive: SF-295 > 100 µM | SF-268 > 100 µM | IGROV-1 > 100 µM | COLO 205 > 100 µM | SK-MEL-5 > 100 µM | M14 > 100 µM | HCT-116 > 100 µM | SF-539 > 100 µM | OVCAR-3 > 100 µM | A549 > 100 µM | SN12C > 100 µM | LXFL 529 > 100 µM | MOLT-4 > 100 µM | HOP-62 > 100 µM | ACHN > 100 µM

COc1c(OC)c(OC)c2c(=O)c(OC)c(-c3ccc4c(c3)OCO4)oc2c1OC
inactive: SF-295 > 100 µM | SK-OV-3 > 100 µM | SF-268 > 100 µM | IGROV-1 > 100 µM | COLO 205 > 100 µM | SK-MEL-5 44.8 µM | M14 > 100 µM | HCT-116 86.7 µM | SF-539 > 100 µM | OVCAR-3 > 100 µM | MCF7 > 100 µM | A549 53.2 µM | SN12C > 100 µM | NCI-H226 > 100 µM | A498 66.2 µM | MOLT-4 39.7 µM | PC-3 69.2 µM | HOP-62 > 100 µM | ACHN 68.7 µM

COC(=O)/C=C1/OC(c2ccccc2)=C(Cl)C1=O
inactive: SF-295 27.7 µM | SK-OV-3 31.6 µM | SF-268 19.5 µM | IGROV-1 19.8 µM | COLO 205 15.9 µM | SK-MEL-5 14.9 µM | M14 16.9 µM | HCT-116 13.1 µM | SF-539 19.8 µM | OVCAR-3 16.7 µM | MCF7 16.7 µM | A549 26.4 µM | SN12C 23.1 µM | NCI-H226 27.5 µM | A498 29.4 µM | MOLT-4 5.32 µM | PC-3 15.2 µM | HOP-62 25.9 µM | ACHN 17.7 µM

CN(C)CCNC(=O)c1cccc(CO)c1[N+](=O)[O-]
inactive: SF-295 > 100 µM | SK-OV-3 > 100 µM | SF-268 > 100 µM | IGROV-1 > 100 µM | COLO 205 > 100 µM | SK-MEL-5 > 100 µM | M14 > 100 µM | HCT-116 > 100 µM | SF-539 > 100 µM | OVCAR-3 > 100 µM | MCF7 > 100 µM | A549 > 100 µM | SN12C > 100 µM | NCI-H226 > 100 µM | A498 > 100 µM | MOLT-4 > 100 µM | PC-3 > 100 µM | HOP-62 > 100 µM | ACHN > 100 µM

C#CCn1c(=O)c2ccccc2n(CC#C)c1=O
inactive: SF-295 > 10 µM | SK-OV-3 > 10 µM | SF-268 > 10 µM | IGROV-1 > 10 µM | COLO 205 > 10 µM | SK-MEL-5 > 10 µM | M14 > 10 µM | HCT-116 > 10 µM | SF-539 > 10 µM | OVCAR-3 > 10 µM | MCF7 > 10 µM | A549 > 10 µM | SN12C > 10 µM | NCI-H226 > 10 µM | A498 > 10 µM | MOLT-4 > 10 µM | PC-3 > 10 µM | HOP-62 > 10 µM | ACHN > 10 µM

C/C=C/COC(=O)CO[N+](=O)[O-]
inactive: SF-295 > 100 µM | SK-OV-3 > 100 µM | SF-268 > 100 µM | IGROV-1 > 100 µM | COLO 205 > 100 µM | M14 > 100 µM | HCT-116 > 100 µM | SF-539 > 100 µM | OVCAR-3 > 100 µM | A549 > 100 µM | SN12C > 100 µM | LXFL 529 > 100 µM | NCI-H226 > 100 µM | MOLT-4 > 100 µM | HOP-62 > 100 µM | ACHN > 100 µM

CCCCN(CCCC)C1(c2cc3ccccc3s2)CCCCC1.[O-][Cl+3]([O-])([O-])O
inactive: SF-295 13.2 µM | SK-OV-3 20.4 µM | SF-268 19.2 µM | IGROV-1 15.5 µM | COLO 205 14.9 µM | SK-MEL-5 18.7 µM | M14 14.6 µM | HCT-116 10.8 µM | SF-539 19.1 µM | OVCAR-3 15.7 µM | MCF7 17.3 µM | A549 18.2 µM | SN12C 21.4 µM | NCI-H226 17.6 µM | A498 19.3 µM | MOLT-4 13.6 µM | PC-3 17.9 µM | HOP-62 15.1 µM | ACHN 16.6 µM

O=C(/C=C/c1cccs1)c1ccccc1Cl
active: A549 0.417 µM
inactive: SF-295 17.8 µM | SK-OV-3 30.7 µM | SF-268 11.4 µM | IGROV-1 17.6 µM | COLO 205 18.8 µM | SK-MEL-5 16.4 µM | M14 1.99 µM | HCT-116 13 µM | SF-539 22.4 µM | OVCAR-3 14.1 µM | MCF7 4.65 µM | SN12C 15.9 µM | NCI-H226 32.8 µM | A498 10.2 µM | MOLT-4 5.7 µM | PC-3 15.4 µM | HOP-62 15.8 µM | ACHN 14.8 µM

CCOC(=O)c1nc2ccc(C(F)(F)F)cc2nc1Nc1ccc(OC)c(OC)c1
inactive: SF-295 > 100 µM | SK-OV-3 60 µM | SF-268 78.2 µM | IGROV-1 > 100 µM | COLO 205 > 100 µM | SK-MEL-5 > 100 µM | M14 > 100 µM | HCT-116 94.4 µM | SF-539 98.6 µM | OVCAR-3 > 100 µM | MCF7 > 100 µM | A549 > 100 µM | SN12C > 100 µM | NCI-H226 > 100 µM | A498 > 100 µM | MOLT-4 > 100 µM | PC-3 > 100 µM | HOP-62 12 µM | ACHN 44.1 µM

O=C1C(=O)N(C(=O)c2ccc(Cl)c(Cl)c2)c2ccccc21
inactive: SF-295 > 100 µM | SK-OV-3 > 100 µM | SF-268 > 100 µM | IGROV-1 > 100 µM | COLO 205 > 100 µM | SK-MEL-5 > 100 µM | M14 > 100 µM | SF-539 > 100 µM | OVCAR-3 > 100 µM | A549 > 100 µM | LXFL 529 > 100 µM | NCI-H226 44.9 µM | MOLT-4 > 100 µM | ACHN > 100 µM

O=C(Nc1ccc(Cl)cc1Cl)C1C(=O)OC2(CCCCC2)OC1=O
inactive: SF-295 2.92 µM | SK-OV-3 10.6 µM | SF-268 14.6 µM | IGROV-1 5.98 µM | COLO 205 10.4 µM | SK-MEL-5 2.17 µM | M14 8.77 µM | HCT-116 6.08 µM | SF-539 9.66 µM | OVCAR-3 3.18 µM | MCF7 7.29 µM | A549 4.71 µM | SN12C 14.7 µM | NCI-H226 12.6 µM | A498 12.8 µM | MOLT-4 5.15 µM | PC-3 3.45 µM | HOP-62 4.38 µM | ACHN 6.07 µM

COc1ccc2cc(CNCCOCCOCCNCc3ccc4cc(OC)ccc4c3)ccc2c1
active: COLO 205 0.162 µM | SK-MEL-5 0.675 µM | M14 0.26 µM | MCF7 0.887 µM | MOLT-4 0.402 µM
inactive: SF-295 1.17 µM | SK-OV-3 1.79 µM | SF-268 1.42 µM | IGROV-1 1.63 µM | HCT-116 1.23 µM | SF-539 1.54 µM | OVCAR-3 1.73 µM | A549 1.58 µM | SN12C 1.72 µM | NCI-H226 1.55 µM | A498 1.68 µM | PC-3 1.54 µM | HOP-62 1.69 µM | ACHN 1.6 µM

CCCCCC(=O)Nc1[nH]cnc1C(N)=O
inactive: SF-295 > 100 µM | SK-OV-3 > 100 µM | SF-268 > 100 µM | IGROV-1 > 100 µM | COLO 205 > 100 µM | SK-MEL-5 > 100 µM | M14 > 100 µM | HCT-116 > 100 µM | SF-539 > 100 µM | OVCAR-3 > 100 µM | MCF7 > 100 µM | A549 > 100 µM | SN12C > 100 µM | NCI-H226 > 100 µM | A498 > 100 µM | MOLT-4 > 100 µM | PC-3 > 100 µM | HOP-62 > 100 µM | ACHN > 100 µM
